US20230080054A1 (ILDONG PHARMACEUTICAL CO., LTD., priority 2021, published 2023)
Each block holds one compound with its values, some of them ahead of it.

Assays:
human ANO6 [1] = molecular target: T1, human ANO6 (Homo sapiens, UniProt Q4KMQ2); experiment: YFP quenching assay (ANO6 ion channel activity); format: cell-based; conditions: 10 μM ionomycin; for inhibition at 30 µM: test compound 30 μM, read-out: Inhibition Level 30 μM; for inhibition at 1 µM: test compound 1 μM, read-out: Inhibition Level 1 μM
T1 construct: expressed in transfected cells
T1 sequence (Q4KMQ2 1-931 isoform Q4KMQ2-2): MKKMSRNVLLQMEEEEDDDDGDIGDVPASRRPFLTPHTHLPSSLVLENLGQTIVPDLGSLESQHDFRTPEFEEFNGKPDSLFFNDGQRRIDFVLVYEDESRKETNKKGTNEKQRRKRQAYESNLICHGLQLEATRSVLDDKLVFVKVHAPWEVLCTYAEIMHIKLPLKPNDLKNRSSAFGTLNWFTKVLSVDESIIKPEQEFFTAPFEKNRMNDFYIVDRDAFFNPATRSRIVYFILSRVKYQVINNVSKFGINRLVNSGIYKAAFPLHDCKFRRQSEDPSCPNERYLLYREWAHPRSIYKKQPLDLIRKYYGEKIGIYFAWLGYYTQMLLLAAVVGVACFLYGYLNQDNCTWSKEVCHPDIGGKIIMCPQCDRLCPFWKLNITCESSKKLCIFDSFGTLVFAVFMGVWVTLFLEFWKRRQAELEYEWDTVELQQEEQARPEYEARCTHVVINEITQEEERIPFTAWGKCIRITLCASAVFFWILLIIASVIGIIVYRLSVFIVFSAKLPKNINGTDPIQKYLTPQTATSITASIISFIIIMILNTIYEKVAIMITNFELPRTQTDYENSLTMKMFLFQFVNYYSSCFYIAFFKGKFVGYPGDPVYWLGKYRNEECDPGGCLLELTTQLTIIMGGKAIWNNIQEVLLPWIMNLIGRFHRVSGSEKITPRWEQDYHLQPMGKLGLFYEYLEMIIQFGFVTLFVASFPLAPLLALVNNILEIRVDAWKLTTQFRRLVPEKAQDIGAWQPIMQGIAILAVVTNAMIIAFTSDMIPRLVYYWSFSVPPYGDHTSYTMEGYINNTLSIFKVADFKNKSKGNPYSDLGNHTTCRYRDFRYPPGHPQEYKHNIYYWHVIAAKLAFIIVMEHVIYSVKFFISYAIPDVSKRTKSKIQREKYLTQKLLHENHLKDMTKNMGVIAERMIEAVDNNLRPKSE
Description: Example 3: YFP Quenching Assay
1. Materials and Instruments
Ionomycin (Alomonelab cat. #I-700), FLUOstar Omega microplate reader (BMG Labtech, Ortenberg, Germany), and MARS Data Analysis Software (BMG Labtech)
Fisher rat thyroid (FRT) cells stably expressing human ANO6 (GenBank accession no. NP_001191732.1, provided by J. H. Nam, Dongguk University College of Medicine, Korea) and halide sensor mutant YFP-H148Q/I152L/F46L) were constructed and grown in Dulbecco's modified Eagle's medium Nutrient Mixture F-12 (DMEM/F-12) supplemented 10% FBS, 100 units/mL penicillin, 500 μg/mL hygromycin B and 100 μg/mL neomycin.
Fisher rat thyroid (FRT) cells stably expressing human ANO6 and halide sensor mutant YFP (H148Q/I152L/F46L) were seeded in black walled 96 well plates and incubated in a 37° C., 5% CO2 incubator to reach about 100% cell confluency. Then, each well of the 96 well plates were washed for several times with phosphate buffered saline (PBS), and 50 μL of PBS was added to each well. Test compounds (100× in DMSO) were added to each well to be 1% v/v DMSO. After incubation for 10 minutes in 40° C., the 96 well plates were transferred to a plate reader, and YFP fluorescence changed by SCN-introduced into cells through activated ANO6 were measured by the following steps.
(1) YFP fluorescence signals were recorded in every 0.4 seconds.
(2) Basal YFP fluorescence signals were recorded for 1 second.
(3) 140 mM SCN-(50 μL) containing 10 μM ionomycin was injected to each well, and YFP fluorescence signals were recorded.
The inhibitory activity (%) of each of the test compounds was obtained by the following steps.
(1) Background signals were subtracted from recording values, and the resulting values were converted to relative percentages. The values at 0 second were set to be 100%.
(2) Differences between the values at 3.6 seconds and those of at 7.6 seconds were calculated.
(3) In each row of 96 well plate, the inhibitory activity of each of the test compounds was calculated as percentages. The inhibitory activity of a negative control group to which neither compounds nor ionomycin were treated was set to be 100%, and the inhibitory activity of a positive control group to which ionomycin was treated and compounds were not treated was set to be 0%.
(4) The assay was performed in duplicate or triplicate, and the results were averaged.

human ANO6 [2] = molecular target: T1, human ANO6; experiment: LACT C2 assay (phosphatidylserine scramblase function assay); format: cell-based; conditions: FRT cells expressing human ANO6, 10 μM ionomycin; for inhibition at 0.1 µM: test compound 100 nM, read-out: Inhibition Level 100 nM; for inhibition at 1 µM: test compound 1 μM, read-out: Inhibition Level 1 μM
Summary of the method: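 FRT cells stably expressing human ANO6 were pretreated with compound (1% DMSO) for 10 min, then stimulated with 10 μM ionomycin for 10 min. Surface phosphatidylserine was stained with 500 nM Lact-C2-GFP and quantified by imaging. Inhibition was scaled between unstimulated (100%) and ionomycin-only (0%) controls, averaged over triplicates.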

inhibition at 0.1 µM (human ANO6 [2]): < 30%
inhibition at 1 µM (human ANO6 [2]): ≥ 60%
Structure (SMILES): O=C(Nc1cccc(F)c1)c1cccc(Nc2ncc(-c3cccc(F)c3)cn2)c1 [Compound A91]

inhibition at 0.1 µM (human ANO6 [2]): < 30%
inhibition at 1 µM (human ANO6 [2]): ≥ 60%
Structure (SMILES): Cc1ccc(NC(=O)c2cccc(Nc3ncc(-c4cccc(F)c4)cn3)c2)cc1C [Compound A92]

inhibition at 0.1 µM (human ANO6 [2]): < 30%
Structure (SMILES): O=C(Nc1ccccc1)c1cccc(Nc2ncc(-c3cccc(F)c3)cn2)c1 [Compound A93]

inhibition at 0.1 µM (human ANO6 [2]): < 30%
Structure (SMILES): O=C(NC1CCCCCC1)c1cccc(Nc2ncc(-c3cccc(F)c3)cn2)c1 [Compound A94]

inhibition at 0.1 µM (human ANO6 [2]): < 30%
inhibition at 1 µM (human ANO6 [2]): 30 to 60%
Structure (SMILES): CN(CCCNC(=O)c1cccc(Nc2ccc(-c3ccccc3)nn2)c1)Cc1ccccc1 [Compound A95]

inhibition at 0.1 µM (human ANO6 [2]): < 30%
inhibition at 1 µM (human ANO6 [2]): 30 to 60%
Structure (SMILES): O=C(NCc1ccc(F)cc1)c1cccc(Nc2ncc(-c3cccc(F)c3)cn2)c1 [Compound A96]

inhibition at 0.1 µM (human ANO6 [2]): < 30%
inhibition at 1 µM (human ANO6 [2]): < 30%
Structure (SMILES): Cc1ccc(CNC(=O)c2cccc(Nc3ncc(-c4cccc(F)c4)cn3)c2)cc1 [Compound A97]

inhibition at 0.1 µM (human ANO6 [2]): < 30%
inhibition at 1 µM (human ANO6 [2]): 30 to 60%
Structure (SMILES): O=C(NCc1ccccc1Cl)c1cccc(Nc2ncc(-c3cccc(F)c3)cn2)c1 [Compound A98]

inhibition at 0.1 µM (human ANO6 [2]): < 30%
inhibition at 1 µM (human ANO6 [2]): < 30%
Structure (SMILES): Cc1ccccc1CNC(=O)c1cccc(Nc2ncc(-c3cccc(F)c3)cn2)c1 [Compound A99]

inhibition at 0.1 µM (human ANO6 [2]): < 30%
inhibition at 1 µM (human ANO6 [2]): 30 to 60%
Structure (SMILES): O=C(NCc1ccc(Br)cc1)c1cccc(Nc2ncc(-c3cccc(F)c3)cn2)c1 [Compound A100]

inhibition at 0.1 µM (human ANO6 [2]): < 30%
inhibition at 1 µM (human ANO6 [2]): 30 to 60%
Structure (SMILES): O=C(NCc1ccc(Cl)cc1)c1cccc(Nc2ncc(-c3cccc(F)c3)cn2)c1 [Compound A101]

inhibition at 0.1 µM (human ANO6 [2]): < 30%
inhibition at 1 µM (human ANO6 [2]): ≥ 60%
Structure (SMILES): Cc1ccc(NC(=O)c2cccc(Nc3ncc(-c4cccc(F)c4)cn3)c2)cc1 [Compound A102]

More lines, now with the values behind:

Structure (SMILES): Cc1ccc(CNC(=O)c2cccc(Nc3cccnn3)c2)o1 [Compound 5, N-[(5-methylfuran-2-yl)methyl]-3-[(pyridazin-3-yl)amino]benzamide]
inhibition at 30 µM (human ANO6 [1]): 30 to 60%

Structure (SMILES): Cc1ccc(CNC(=O)c2cccc(Nc3ccc(-c4ccco4)nn3)c2)o1 [Compound 8, 3-{[6-(furan-2-yl)pyridazin-3-yl]amino}-N-[(5-methylfuran-2-yl)methyl]benzamide]
inhibition at 1 µM (human ANO6 [1]): 30 to 60%
inhibition at 30 µM (human ANO6 [1]): ≥ 60%

Structure (SMILES): Cc1ccc(CNC(=O)c2cccc(Nc3ccc(-c4ccncc4)nn3)c2)o1 [Compound 9, N-[(5-methylfuran-2-yl)methyl]-3-{[6-(pyridin-4-yl)pyridazin-3-yl]amino}benzamide]
inhibition at 1 µM (human ANO6 [1]): < 30%
inhibition at 30 µM (human ANO6 [1]): ≥ 60%

Structure (SMILES): Cc1ccc(CNC(=O)c2cccc(Nc3cnc(-c4ccccc4)nc3)c2)o1 [Compound 11, N-[(5-methylfuran-2-yl)methyl]-3-[(2-phenylpyrimidin-5-yl)amino]benzamide]
inhibition at 1 µM (human ANO6 [1]): 30 to 60%
inhibition at 30 µM (human ANO6 [1]): ≥ 60%

Structure (SMILES): Cc1ccc(CNC(=O)c2cccc(Nc3ncc(-c4ccccc4)nn3)c2)o1 [Compound 12, N-[(5-methylfuran-2-yl)methyl]-3-[(6-phenyl-1,2,4-triazin-3-yl)amino]benzamide]
inhibition at 1 µM (human ANO6 [1]): 30 to 60%
inhibition at 30 µM (human ANO6 [1]): 30 to 60%

Structure (SMILES): COc1ccc(-c2ccc(Nc3cccc(C(=O)NCc4ccc(C)o4)c3)nn2)cc1 [Compound 13, 3-{[6-(4-methoxyphenyl)pyridazin-3-yl]amino}-N-[(5-methylfuran-2-yl)methyl]benzamide]
inhibition at 1 µM (human ANO6 [1]): < 30%
inhibition at 30 µM (human ANO6 [1]): ≥ 60%

Structure (SMILES): O=C(NCCCN1CCOCC1)c1cccc(Nc2ccc(-c3ccccc3)nn2)c1 [Compound 15, N-[3-(morpholin-4-yl)propyl]-3-[(6-phenylpyridazin-3-yl)amino]benzamide]
inhibition at 1 µM (human ANO6 [1]): < 30%
inhibition at 30 µM (human ANO6 [1]): 30 to 60%

Structure (SMILES): Cc1ccc(CNC(=O)c2cccc(Nc3ccc(-c4ccc(Cl)c(Cl)c4)nn3)c2)o1 [Compound 16, 3-{[6-(3,4-dichlorophenyl)pyridazin-3-yl]amino}-N-[(5-methylfuran-2-yl)methyl]benzamide]
inhibition at 30 µM (human ANO6 [1]): < 30%

Structure (SMILES): NC(=O)c1cccc(Nc2ccc(-c3ccccc3)nn2)c1 [Compound 17, 3-[(6-phenylpyridazin-3-yl)amino]benzamide]
inhibition at 30 µM (human ANO6 [1]): 30 to 60%

Structure (SMILES): COc1cc(F)ccc1CNC(=O)c1cccc(Nc2ccc(-c3cccc(F)c3)nn2)c1 [Compound 229, N-(4-fluoro-2-methoxybenzyl)-3-((6-(3-fluorophenyl)pyridazin-3-yl)amino)benzamide]
inhibition at 0.1 µM (human ANO6 [2]): < 30%
inhibition at 1 µM (human ANO6 [2]): < 30%

Structure (SMILES): O=C(NCc1ccc(F)c(F)c1)c1cccc(Nc2ccc(-c3ccccc3)nn2)c1 [Compound 230, N-(3,4-difluorobenzyl)-3-((6-phenylpyridazin-3-yl)amino)benzamide]
inhibition at 0.1 µM (human ANO6 [2]): < 30%
inhibition at 1 µM (human ANO6 [2]): 30 to 60%

Structure (SMILES): Cc1cc(CNC(=O)c2cccc(Nc3ccc(-c4ccccc4)nn3)c2)ccc1F [Compound 231, N-(4-fluoro-3-methylbenzyl)-3-((6-phenylpyridazin-3-yl)amino)benzamide]
inhibition at 0.1 µM (human ANO6 [2]): < 30%
inhibition at 1 µM (human ANO6 [2]): < 30%

Structure (SMILES): COc1cc(CNC(=O)c2cccc(Nc3ccc(-c4ccccc4)nn3)c2)ccc1F [Compound 232, N-(4-fluoro-3-methoxybenzyl)-3-((6-phenylpyridazin-3-yl)amino)benzamide]
inhibition at 0.1 µM (human ANO6 [2]): < 30%
inhibition at 1 µM (human ANO6 [2]): < 30%

Structure (SMILES): CC(NC(=O)c1cccc(Nc2ccc(-c3ccccc3)nn2)c1)c1ccc(F)cc1 (stereo not shown) [Compound 233, N-(1-(4-fluorophenyl)ethyl)-3-((6-phenylpyridazin-3-yl)amino)benzamide]
inhibition at 0.1 µM (human ANO6 [2]): < 30%
inhibition at 1 µM (human ANO6 [2]): < 30%

Structure (SMILES): O=C(N[C@@H]1C[C@H]1c1ccc(F)c(F)c1)c1cccc(Nc2ccc(-c3ccccc3)nn2)c1 [Compound 234, N-((1R,2S)-2-(3,4-difluorophenyl)cyclopropyl)-3-((6-phenylpyridazin-3-yl)amino)benzamide]
inhibition at 0.1 µM (human ANO6 [2]): 30 to 60%
inhibition at 1 µM (human ANO6 [2]): ≥ 60%

Structure (SMILES): Cc1ccc([C@@H]2C[C@H]2NC(=O)c2cccc(Nc3ccc(-c4ccccc4)nn3)c2)cc1 [Compound 235, 3-((6-phenylpyridazin-3-yl)amino)-N-((1R,2S)-2-(p-tolyl)cyclopropyl)benzamide]
inhibition at 0.1 µM (human ANO6 [2]): 30 to 60%
inhibition at 1 µM (human ANO6 [2]): ≥ 60%

Structure (SMILES): COc1ccc([C@@H]2C[C@H]2NC(=O)c2cccc(Nc3ccc(-c4ccccc4)nn3)c2)cc1 [Compound 236, N-((1R,2S)-2-(4-methoxyphenyl)cyclopropyl)-3-((6-phenylpyridazin-3-yl)amino)benzamide]
inhibition at 0.1 µM (human ANO6 [2]): < 30%
inhibition at 1 µM (human ANO6 [2]): ≥ 60%

Structure (SMILES): O=C(NCC1(O)CC1)c1cccc(Nc2ccc(-c3ccccc3)nn2)c1 [Compound 237, N-((1-hydroxycyclopropyl)methyl)-3-((6-phenylpyridazin-3-yl)amino)benzamide]
inhibition at 0.1 µM (human ANO6 [2]): < 30%
inhibition at 1 µM (human ANO6 [2]): < 30%
